Assay results published in patent US6723747B2, “Substituted 6H-DiBenzo[c,h]chromenes as estrogenic agents” (Wyeth, priority 2001, dated 2004).

Key:
[1] = tested on: HLA-B27 rats; assay: HLA rat test procedure for inflammatory bowel disease; type: in vivo; details: for stool character, group's average score: 10 mg/kg oral daily, 3=diarrhea, 2=soft, 1=normal stool
Experimental: Representative compounds of the invention were evaluated in the HLA rat standard pharmacological test procedure which emulates inflammatory bowel disease in humans. The following briefly describes the procedure used and results obtained. Male HLA-B27 rats were obtained from Taconic and provided unrestricted access to food (PMI Lab diet 5001) and water. Rats were dosed once daily (orally) with either vehicle (2% tween-80/0.5% methylcellulose) or Example 1d (10 mg/kg) for 26 days. Stool quality was observed daily and graded according to the following scale: Diarrhea=3; soft stool=2; normal stool=1. […] At the end of the study, serum was collected and stored at −70° C. A section of colon was prepared for histological analysis and an additional segment was analyzed for myeloperoxidase activity.
Histological analysis. Colonic tissue was immersed in 10% neutral buffered formalin. Each specimen of colon was separated into four samples for evaluation. The formalin-fixed tissues were processed in a Tissue Tek vacuum infiltration processor (Miles, Inc; West Haven, Conn.) for paraffin embedding. The samples were sectioned at 5 μm and then stained with hematoxylin and eosin (H&E) for blinded histologic evaluations using a scale modified after Boughton-Smith. After the scores were completed the samples were unblinded, and data were tabulated and analyzed by ANOVA linear modeling with multiple mean comparisons. Sections of colonic tissue were evaluated for several disease indicators and given relative scores.

[2] = molecular target: T1, human ERβ (Homo sapiens, UniProt Q92731); assay: Radioligand binding competition with [3H]-17β-estradiol, ERβ; details: human ERβ ligand binding domain, read-out: ER-β IC50
T1 construct: M214-Q530 of human ERβ; Flag (C); made in house; host or cells: E. coli BL21(DE3), clarified lysate

[3] = tested on: casein kinase II mRNA; assay: Mammary end bud test procedure (rat mammotrophic assay); type: in vivo; details: 20 mg/kg sc + progesterone 30 mg/kg; ovariectomized rats; vehicle 1.61 ± 0.36
Experimental: Estrogens are required for full ductal elongation and branching of the mammary ducts, and the subsequent development of lobulo-alveolar end buds under the influence of progesterone. In this test procedure, the mammotrophic activity of selected compounds of the invention was evaluated according to the following standard pharmacological test procedure. Twenty-eight day old Sprague-Dawley rats (Taconic Farms, Germantown, N.Y.) were ovariectomized and rested for nine days. […] For the final three days, rats were also dosed subcutaneously with progesterone (30 mg/kg). On the seventh day, rats were euthanised and a mammary fat pad excised. This fat pad was analyzed for casein kinase II mRNA as a marker of end bud proliferation. Casein kinase II mRNA was anlayzed by real-time RT-PCR. Briefly, RNA was isolated following Trizol (GibcoBRL, Grand Island, N.Y.) according to the manufacture's directions, Samples were treated with DNAse I using DNA-free kit (Ambion), and casein kinase II mRNA levels were measured by real-time RT-PCR using the Taqman Gold procedure (PE Applied Biosystems). […] Casein kinase II mRNA levels were normalized to 18s ribosomal RNA contained within each sample reaction using primers and probe supplied by PE Applied Biosystems. The following results were obtained for an example of the invention (Table (4)).

[4] = tested on: Lewis rats; assay: Lewis rat adjuvant-induced arthritis, inhibition test procedure; type: in vivo; details: 10 mg/kg sc daily from Day 1

T1 sequence (Q92731 214-530): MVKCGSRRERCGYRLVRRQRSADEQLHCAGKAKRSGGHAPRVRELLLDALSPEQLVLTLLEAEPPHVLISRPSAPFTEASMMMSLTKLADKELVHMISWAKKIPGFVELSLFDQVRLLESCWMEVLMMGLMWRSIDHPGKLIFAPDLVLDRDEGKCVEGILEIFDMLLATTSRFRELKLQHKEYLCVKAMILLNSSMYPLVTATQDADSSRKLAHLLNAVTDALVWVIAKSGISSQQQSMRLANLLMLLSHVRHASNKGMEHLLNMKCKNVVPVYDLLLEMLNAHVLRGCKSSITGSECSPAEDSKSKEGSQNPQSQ

SMILES: N#Cc1cc2c(c3ccc(O)cc13)OCc1cc(O)ccc1-2 [Example 1d, 2,8-Dihydroxy-6H-dibenzo[c,h]chromene-12-carbonitrile]
- stool quality ([1]; 10 mg/kg orally once daily for 26 days): stool quality improved
- stool character, group's average score ([1]; day 1, vehicle 1): 1
- stool character, group's average score ([1]; day 2, vehicle 1): 1
- stool character, group's average score ([1]; day 3, vehicle 1): 1
- stool character, group's average score ([1]; day 4, vehicle 1.25): 1
- stool character, group's average score ([1]; day 5, vehicle 2.5): 1.5
- stool character, group's average score ([1]; day 6, vehicle 2.75): 1.25
- stool character, group's average score ([1]; day 7, vehicle 2.75): 1.25
- stool character, group's average score ([1]; day 8, vehicle 2.75): 1
- stool character, group's average score ([1]; day 9, vehicle 3): 1.25
- stool character, group's average score ([1]; day 10, vehicle 3): 1
- stool character, group's average score ([1]; day 11, vehicle 2.75): 1.25
- stool character, group's average score ([1]; day 12, vehicle 2.75): 1.25
- stool character, group's average score ([1]; day 13, vehicle 2.75): 1.25
- stool character, group's average score ([1]; day 14, vehicle 2.75): 1.25
- stool character, group's average score ([1]; day 15, vehicle 2.75): 1
- stool character, group's average score ([1]; day 16, vehicle 3): 1
- stool character, group's average score ([1]; day 17, vehicle 2.75): 1
- stool character, group's average score ([1]; day 18, vehicle 2.75): 1
- stool character, group's average score ([1]; day 19, vehicle 2.75): 1
- stool character, group's average score ([1]; day 22, vehicle 3): 1
- stool character, group's average score ([1]; day 23, vehicle 3): 1
- stool character, group's average score ([1]; day 24, vehicle 3): 1
- stool character, group's average score ([1]; day 25, vehicle 3): 1
- stool character, group's average score ([1]; day 26, vehicle 3): 1
- measurements of tissue injury in colon ([1]; histological analysis, 10 mg/kg orally): effective in reducing several measurements of tissue injury
- Fibrosis (0-2), colon histological score, mean ± SD ([1]; treated orally for 4 weeks, 10 mg/kg, vehicle 1.06 ± 0.32): 0.13 ± 0.14
- Ulceration (0-2), colon histological score, mean ± SD ([1]; treated orally for 4 weeks, 10 mg/kg, vehicle 1.44 ± 0.66): 0.19 ± 0.13
- Lesion depth (0-2), colon histological score, mean ± SD ([1]; treated orally for 4 weeks, 10 mg/kg, vehicle 1.56 ± 0.63): 0.19 ± 0.13
- Inflammation (0-3), colon histological score, mean ± SD ([1]; treated orally for 4 weeks, 10 mg/kg, vehicle 2.88 ± 0.14): 1.38 ± 0.43
- Total score, colon histological score, mean ± SD ([1]; treated orally for 4 weeks, 10 mg/kg, vehicle 6.94 ± 1.51): 1.88 ± 0.14
- IC50 [2]: 1.8 nM
- melting point: > 250 °C
- Casein kinase II mRNA/18S rRNA (mean ± SEM) [3]: 1.4 ± 0.7
- joint inflammation score (maximal score per day 12) ([4]; day 1, vehicle 0.00): 0.00
- joint inflammation score (maximal score per day 12) ([4]; day 2, vehicle 0.00): 0.00
- joint inflammation score (maximal score per day 12) ([4]; day 3, vehicle 4.50): 2.66
- joint inflammation score (maximal score per day 12) ([4]; day 4, vehicle 5.50): 1.83
- joint inflammation score (maximal score per day 12) ([4]; day 5, vehicle 9.33): 2.66
- joint inflammation score (maximal score per day 12) ([4]; day 6, vehicle 10.50): 2.16
- joint inflammation score (maximal score per day 12) ([4]; day 7, vehicle 10.60): 2.00
- joint inflammation score (maximal score per day 12) ([4]; day 8, vehicle 11.00): 1.66
- joint inflammation score (maximal score per day 12) ([4]; day 9, vehicle 11.50): 2.00
- joint inflammation score (maximal score per day 12) ([4]; day 10, vehicle 11.33): 2.00
- joint inflammation score (maximal score per day 12) ([4]; day 11, vehicle 10.83): 1.66
- joint inflammation score (maximal score per day 12) ([4]; day 12, vehicle 10.83): 1.66
- joint inflammation score (maximal score per day 12) ([4]; day 13, vehicle 11.00): 2.16
- joint inflammation score (maximal score per day 12) ([4]; day 14, vehicle 11.00): 2.00
- joint inflammation score (maximal score per day 12) ([4]; day 15, vehicle 11.00): 2.00
- joint inflammation score (maximal score per day 12) ([4]; day 16, vehicle 11.00): 1.00
- joint inflammation score (maximal score per day 12) ([4]; day 17, vehicle 10.50): 1.33
